Reference: US20230312481A1, “SUBSTITUTED (PHTHALAZIN-1-YLMETHYL)UREAS, SUBSTITUTED N-(PHTHALAZIN-1-YLMETHYL)AMIDES, AND ANALOGUES THEREOF” (priority 2020, published 2023)

Each compound was assayed on HBV rcDNA in HepDE19 cells (assay: HepDE19 assay with bDNA quantitation of HBV rcDNA). Conditions: HepDE19 cells, 7 day incubation, rcDNA measured by Quantigene 2.0 bDNA assay; top concentration 25 µM; read-out: DE-19bDNA EC50.
Format: cell-based, hepatitis B virus
Procedure, shortened: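 HepDE19 cells were induced by tetracycline withdrawal, then treated with compounds (0.5% DMSO final) for 7 days at 37 °C. HBV rcDNA measured by bDNA assay with HBV-specific probes. Viability assessed on replicate plates (5,000 cells/well, 4 days) by CellTiter-Glo ATP content.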

SMILES | EC50 [nM]
CC(c1n[nH]c(=O)c2cc(F)c(F)cc12)N(C)C(=O)c1ccc2cn[nH]c2c1 (single isomer, unassigned) [Compound 113, N-(1-(6,7-difluoro-4-oxo-3,4-dihydrophthalazin-1-yl)ethyl)-N-methyl-1H-indazole-6-carboxamide] | 2490
CC(c1n[nH]c(=O)c2ccccc12)N(C)C(=O)Nc1ccc(F)c(Cl)c1 (single isomer, unassigned) [Compound 4, 3-(3-chloro-4-fluoro-phenyl)-1-methyl-1-[1-(4-oxo-3H-phthalazin-1-yl)ethyl]urea] | 200
CC(c1n[nH]c(=O)c2cc(F)c(F)cc12)N(C)C(=O)c1ccc2ocnc2c1 (single isomer, unassigned) [Compound 89, N-(1-(6,7-difluoro-4-oxo-3,4-dihydrophthalazin-1-yl)ethyl)-N-methylbenzo[d]oxazole-5-carboxamide] | 2420
CC(c1n[nH]c(=O)c2cc(F)c(F)cc12)N(C)C(=O)c1ccc2ccn(C)c2c1 (single isomer, unassigned) [Compound 104, N-(1-(6,7-difluoro-4-oxo-3,4-dihydrophthalazin-1-yl)ethyl)-N,1-dimethyl-1H-indole-6-carboxamide] | > 25000
CC(c1n[nH]c(=O)c2cc(F)c(F)cc12)N(C)C(=O)c1ccc2[nH]ncc2c1 (single isomer, unassigned) [Compound 110, N-(1-(6,7-difluoro-4-oxo-3,4-dihydrophthalazin-1-yl)ethyl)-N-methyl-1H-indazole-5-carboxamide] | > 25000
CC(c1n[nH]c(=O)c2cc(F)c(F)cc12)N(C)C(=O)c1cc2c(C(F)F)cc(F)cc2[nH]1 (single isomer, unassigned) [Compound 97, N-(1-(6,7-difluoro-4-oxo-3,4-dihydrophthalazin-1-yl)ethyl)-4-(difluoromethyl)-6-fluoro-N-methyl-1H-indole-2-carboxamide] | 20
CC(c1n[nH]c(=O)c2cc(F)c(F)cc12)N(C)C(=O)c1cnc(C(F)(F)F)c(Cl)c1 (single isomer, unassigned) [Compound 93, 5-chloro-N-(1-(6,7-difluoro-4-oxo-3,4-dihydrophthalazin-1-yl)ethyl)-N-methyl-6-(trifluoromethyl)nicotinamide] | 1660
CC(c1n[nH]c(=O)c2cc(F)c(F)cc12)N(C)C(=O)c1ccc2ccn(C)c2c1 (single isomer, unassigned) [Compound 105, N-(1-(6,7-difluoro-4-oxo-3,4-dihydrophthalazin-1-yl)ethyl)-N,1-dimethyl-1H-indole-6-carboxamide] | 1000

Same assay, conditions: Hepatitis B virus, HepDE19, 168 h, HepDE19 cells, 7 day incubation, rcDNA measured by Quantigene 2.0 bDNA assay; top concentration 25 µM; read-out: DE-19bDNA EC50

SMILES | EC50 [nM]
CC(c1n[nH]c(=O)c2cc(F)c(F)cc12)N(C)C(=O)c1ccc(C(F)(F)F)cc1 (racemic) [Compound 66, N-(1-(6,7-difluoro-4-oxo-3,4-dihydrophthalazin-1-yl)ethyl)-N-methyl-4-(trifluoromethyl)benzamide] | 100
CC(c1n[nH]c(=O)c2cc(Cl)ccc12)N(C)C(=O)Nc1ccc(F)c(Cl)c1 (racemic) [Compound 12, 3-(3-chloro-4-fluorophenyl)-1-(1-(6-chloro-4-oxo-3,4-dihydrophthalazin-1-yl)ethyl)-1-methylurea] | 260
CC(C)CN(C(=O)Nc1ccc(F)c(Cl)c1)C(C)c1nn(C)c(=O)c2cc(F)c(F)cc12 (racemic) [Compound 23, 3-(3-chloro-4-fluorophenyl)-1-(1-(6,7-difluoro-3-methyl-4-oxo-3,4-dihydrophthalazin-1-yl)ethyl)-1-isobutylurea] | 3
CC(c1n[nH]c(=O)c2cc(F)c(F)cc12)N(C)C(=O)c1ccc(Br)c(F)c1 (racemic) [Compound 63, 4-bromo-N-(1-(6,7-difluoro-4-oxo-3,4-dihydrophthalazin-1-yl)ethyl)-3-fluoro-N-methylbenzamide] | 60
CC(C)CN(C(=O)Nc1ccc(F)c(Cl)c1)C(C)c1n[nH]c(=O)c2cc(F)ccc12 (racemic) [Compound 15, 3-(3-chloro-4-fluorophenyl)-1-(1-(6-fluoro-4-oxo-3,4-dihydrophthalazin-1-yl)ethyl)-1-isobutylurea] | 10
CC(c1nn(C)c(=O)c2cc(F)c(F)cc12)N(C)C(=O)Nc1ccc(F)c(Cl)c1 (racemic) [Compound 22, 3-(3-chloro-4-fluoro-phenyl)-1-[1-(6,7-difluoro-3-methyl-4-oxo-phthalazin-1-yl)ethyl]-1-methyl-urea] | 26
CC(c1n[nH]c(=O)c2cc(F)c(F)cc12)N(C)C(=O)c1cnc(C(F)(F)F)c(F)c1 (racemic) [Compound 114, N-(1-(6,7-difluoro-4-oxo-3,4-dihydrophthalazin-1-yl)ethyl)-5-fluoro-N-methyl-6-(trifluoromethyl)nicotinamide] | 4180
CC(C)CN(C(=O)Nc1ccc(F)c(Cl)c1)C(C)c1n[nH]c(=O)c2ccccc12 (racemic) [Compound 2, 3-(3-chloro-4-fluoro-phenyl)-1-isobutyl-1-[1-(4-oxo-3H-phthalazin-1-yl)ethyl]urea] | 10
CC(c1nn(C)c(=O)c2cc(F)c(F)cc12)N(CCS(=O)(=O)NC(=O)Nc1ccc(F)c(Cl)c1)C(=O)Nc1ccc(F)c(Cl)c1 (racemic) [Compound 30, 3-(3-chloro-4-fluoro-phenyl)-1-[2-[(3-chloro-4-fluorophenyl)carbamoylsulfamoyl]ethyl]-1-[1-(6,7-difluoro-3-methyl-4-oxo-phthalazin-1-yl)ethyl]urea] | 58
CC(c1nn(C)c(=O)c2cc(F)c(F)cc12)N(CCCO)C(=O)Nc1ccc(F)cc1 (racemic) [Compound 26, 1-(1-(6,7-difluoro-3-methyl-4-oxo-3,4-dihydrophthalazin-1-yl)ethyl)-3-(4-fluorophenyl)-1-(3-hydroxypropyl)urea] | 31
CC(c1n[nH]c(=O)c2cc(F)c(F)cc12)N(C)C(=O)Nc1ccc(F)c(C#N)c1 (racemic) [Compound 76, 3-(3-cyano-4-fluorophenyl)-1-(1-(6,7-difluoro-4-oxo-3,4-dihydrophthalazin-1-yl)ethyl)-1-methylurea] | 40
CC(C)CN(C(=O)Nc1ccc(F)cc1)C(C)c1n[nH]c(=O)c2ccccc12 (racemic) [Compound 19, 3-(4-fluorophenyl)-1-isobutyl-1-(1-(4-oxo-3,4-dihydrophthalazin-1-yl)ethyl)urea] | 48
CC(C)CN(C(=O)Nc1ccc(F)cc1)C(C)c1nn(C)c(=O)c2ccccc12 (racemic) [Compound 9, 3-(4-fluorophenyl)-1-isobutyl-1-(1-(3-methyl-4-oxo-3,4-dihydrophthalazin-1-yl)ethyl)urea] | 30
CC(c1n[nH]c(=O)c2cc(F)c(F)cc12)N(C)C(=O)c1ccc(C(F)(F)F)c(F)c1 (racemic) [Compound 62, N-(1-(6,7-difluoro-4-oxo-3,4-dihydrophthalazin-1-yl)ethyl)-3-fluoro-N-methyl-4-(trifluoromethyl)benzamide] | 100
CC(C)CN(C(=O)NC1CC1)C(C)c1nn(C)c(=O)c2cc(F)c(F)cc12 (racemic) [Compound 33, 3-cyclopropyl-1-(1-(6,7-difluoro-3-methyl-4-oxo-3,4-dihydrophthalazin-1-yl)ethyl)-1-isobutylurea] | 6300

Same assay, conditions: Hepatitis B virus, HepDE19, 168 h, read-out: DE-19bDNA EC50

SMILES | EC50 [nM]
C[C@H](c1n[nH]c(=O)c2cc(F)c(F)cc12)N(C)C(=O)Nc1ccc(F)cc1 [Compound 43, (R)(1-(6,7-difluoro-4-oxo-3,4-dihydrophthalazinyl)ethyl)-3-(4-fluorophenyl)methylurea] | 59
